Measured values: PMC11001709, “Anti-toxoplasma activity and DNA-binding of copper(II) and zinc(II) coordination compounds with 5-nitroimidazole-based ligands” (Journal of Biological Inorganic Chemistry, 2023)
Where two headings read alike, the source gives them in different places.

What was measured:
[1] = system: RH tachyzoites of Toxoplasma gondii; test: Viability of extracellular tachyzoites, Sytox Green exclusion test; format: cell-based
Experimental: RH tachyzoites of Toxoplasma gondii were extracted in PBS solution at pH 7.4 from intraperitoneal fluid of infected CD1 mice on the third day of infection and centrifuged for ten minutes at 260g. Purified parasites were used within 4 h after their isolation.
The viability of the parasites was determined from staining with Sytox Green® fluorescent dye exclusion test. Purified tachyzoites (1 × 10^6) were incubated for one hour at room temperature with PBS solutions of the coordination compounds or the free ligands at concentrations of 40, 20, 10, 5, and 2.5 µM (0.1% DMSO), in a volume final of 1 mL. After the incubation time, the samples were centrifuged for 10 min at 250g, the medium was removed and 20 µL of Sytox Green® was added after 15 min of incubation for differentiate dead parasites in a Neubauer chamber. The assays were performed in triplicate. The half maximal inhibitory concentration (IC50) was calculated by Boltzmann regression analysis and expressed as mean ± standard error of three replicates. Based on the results the tachyzoites were incubated under the same conditions with the coordination compounds [Cu(onz)2Cl2] and [Cu(onz)2Br2] at their respective IC50 values, Sytox Green® was then added, and they were observed by fluorescence microscopy. Sulfadiazine was used as positive control.
Viability assays were performed against tachyzoites of Toxoplasma gondii. The RH strain was used to evaluate the effect of different concentrations (namely, 2.5, 5, 10, 20 and 40 µM) of the coordination compounds and the free 5-nitroimidazole against the tachyzoites. The evaluation were performed in PBS buffer (pH 7.4) with Sytox Green® exclusion test, which allows differentiating dead from live tachyzoites, since the intact cell membrane of alive ones is not stained.

[2] = system: mouse fibroblast L929 cells; test: Cytotoxic activity in healthy host cells; format: cell-based
Experimental: The IC50 values obtained for [Cu(onz)2Cl2] (210.2 μM) and [Cu(onz)2Br2]

[3] = system: ct-DNA; test: Competitive displacement of ethidium bromide from DNA (fluorescence); format: binding, calf; conditions: EB 75 µM, [DNA]b = 30 µM, compound 0-50 µM, 1 h
Experimental: For the UV–Vis, fluorescence and circular dichroism assays the concentration of ct-DNA was determined on a Varian Cary 100 Scan spectrophotometer from the absorption at 260 nm and the corresponding molar absorptivity of 6600 M^−1 cm^−1 (nucleobase concentration). The stock solutions of the coordination compounds and the free ligands were prepared in cacodylate/NaCl buffer (1 mM cacodylic acid and 20 mM sodium chloride) at pH 7.25. The final samples contained a DMSO concentration of 0.2%.
Emission intensity of the dyes DNA-intercalator ethidium bromide, EB (λexc = 514 nm) and the minor-groove binder Hoechst 33,258 (λexc = 350 nm) was measured on iHR320 HORIBA JOBIN YVON spectrofluorometer. The samples contained 15 µM (in base pairs) of ct-DNA and 75 µM of EB […] in cacodylate/NaCl buffer. The respective dye was incubated for 30 min with ct-DNA to allow its binding to the biomolecule. Subsequently, increasing amounts of coordination compounds (0–50 µM) were added up to a final volume of 2 mL, and the samples were incubated for 1 h at 37 °C. The fluorescence spectra of all samples were recorded at room temperature. The affinity of the compounds for ct-DNA compared to EB was evaluated through the Stern–Volmer quenching constant Ksv, from Eq. 3:3 I0/I=1+Ksvcompound where I0 and I are the emission intensities in absence and the presence of the compound, respectively.
With the aim to corroborate the binding mode of the coordination compounds with DNA competitive displacement assays were carried out by florescence spectroscopy. The fluorescence of ethidium bromide (EB) increases when it intercalates between DNA base pairs, forming an EB-DNA adduct. Competitive binding assays will lead to a decrease of the fluorescence intensity (λexc = 514 nm; λem = 610 nm) if the interacting molecule is capable of displacing EB from the DNA helix. Solutions containing constant concentrations of DNA (30 µM) and EB (75 µM) were incubated for 30 min. Then the coordination compounds to be tested were added in a concentration in the range of 0–50 µM (corresponding to [complex]/[DNA] ratios between = 0 and 3.3), and fluorescence spectra were recorded after 1 h of incubation.

[4] = system: pBR322 plasmid DNA; test: Agarose gel electrophoresis, DNA cleavage; format: biochemical
Experimental: Electrophoresis assays were performed in 1.5% agarose gel and 1× TBE buffer using the DNA plasmid pBR322. The plasmid (15 µM base pairs) was incubated with 10 and 50 μM concentrations of the coordination compounds for 1 h at 37 °C in presence and absence of ascorbic acid (50 μM) as reducing agent and hydrogen peroxide (500 µM) as ROS generator in a final volume of 20 μL. The DNA-cleaving compound [Cu(phen)2(H2O)](NO3)2 was used as reference. The samples were loaded into the gel with 4 μL of a loading buffer (30% glycerol, 5 mM xylene cyanol), and electrophoresis was performed in 1× TBE at 100 V for 1 h in a Bio-Rad horizontal tank. Subsequently, the gel was stained with SYBR™ Safe overnight and images were acquired with a Gel Doc EZ Imager instrument (Bio-Rad).
Distinct forms of pBR322 plasmid DNA are commonly observed by gel electrophoresis due to the conformational changes that present distinct electrophoretic mobility: (1) supercoiled DNA (Form I) that migrates faster on the gel, (2) circular nicked (Form II), obtained from a one-strand scission, has a slower migration through the gel and (3) linear form (Form III) is generated when both strands are cleaved and migrates between forms I and II [54]. The interaction of the free ligands and their copper(II) and zinc(II) coordination compounds with pBR322 was investigated in presence of H2Asc (50 μM) as reducing agent and H2O2 (500 μM) as ROS generator. Solutions of 10 and 50 µM of the coordination compounds were incubated with the DNA at 37 °C for 1 h.

[5] = 1 h, PBS pH 7.4, mean ± standard error of three replicates, read-out: IC50
[6] = viability vs concentration, read-out: IC50 (Boltzman Fit, Fig. S6)
[7] = compound 10 (mM in the source), + H2Asc
[8] = compound 10 (mM in the source), + H2Asc + H2O2
[9] = compound 10 (mM in the source), + H2O2
[10] = compound 10 (mM in the source), no additive
[11] = compound 50 (mM in the source), + H2Asc
[12] = compound 50 (mM in the source), + H2Asc + H2O2
[13] = compound 50 (mM in the source), + H2O2
[14] = compound 50 (mM in the source), no additive

Row | SMILES | IC50 [1, 5] [µM] | IC50 [1, 6] [µM] | Ethidium bromide Ksv [3] [M⁻¹] | %Damage [4, 7] [%] | %Nicked [4, 7] [%] | %Supercoiled [4, 7] [%] | %Damage [4, 8] [%] | %Nicked [4, 8] [%] | %Supercoiled [4, 8] [%] | %Damage [4, 9] [%] | %Nicked [4, 9] [%] | %Supercoiled [4, 9] [%] | %Damage [4, 10] [%] | %Supercoiled [4, 10] [%] | %Damage [4, 11] [%] | %Damage [4, 12] [%] | %Damage [4, 13] [%] | %Damage [4, 14] [%] | %Nicked [4, 14] [%] | %Supercoiled [4, 14] [%] | further results
1 | Cc1ncc([N+](=O)[O-])n1CC(O)CCl.Cc1ncc([N+](=O)[O-])n1CC(O)CCl.[Cl-].[Cl-].[Cu+2] (centres unmarked) [[Cu(onz)2Cl2]] | 8.49 ± 0.64 | 8.49 | 26000 | 58.10 | 33.00 | 41.90 | 80.60 | 46.50 | 19.40 | 16.40 | 6.10 | 83.60 | 36.40 | 63.60 | 100.00 | 100.00 | 100.00 | 33.80 | 9.70 | 66.20 | IC50 [2]: 210 µM; %Nicked [4, 10]: 6.40%
2 | Cc1ncc([N+](=O)[O-])n1CCCl.Cc1ncc([N+](=O)[O-])n1CCCl.[Cl][Cu][Cl] [[Cu(cenz)2Cl2]] | 30.55 ± 0.25 | 30.6 | – | 33.20 | 16.60 | 66.80 | 100.00 | – | – | 83.50 | 84.30 | 16.50 | 12.00 | 88.00 | 100.00 | 100.00 | 100.00 | 31.50 | – | 68.50 | –
3 | Cc1ncc([N+](=O)[O-])n1CC(O)CCl.Cc1ncc([N+](=O)[O-])n1CC(O)CCl.[Cl][Zn][Cl] (centres unmarked) [[Zn(onz)2Cl2]] | – | – | 4500 | 91.2 | 65.70 | 8.80 | 67.90 | 44.00 | 32.10 | 10.80 | 5.90 | 89.20 | 14.6 | 85.40 | 100 | 100.00 | 78.30 | 32.9 | 3.90 | 67.10 | %Nicked [4, 11]: 4.80%; %Nicked [4, 13]: 47.60%; %Supercoiled [4, 13]: 21.70%
4 | Cc1ncc([N+](=O)[O-])n1CCCl.Cc1ncc([N+](=O)[O-])n1CCCl.[Br][Zn][Br] [[Zn(cenz)2Br2]] | 40 ± 0.96 | 40 | 1100 | 28.40 | 6.40 | 71.60 | 89.00 | 75.80 | 11.00 | 19.30 | 27.20 | 80.70 | 6.20 | 93.80 | 96.10 | 78.40 | 98.40 | 11.60 | 2.20 | 88.40 | %Nicked [4, 10]: 3.00%; %Nicked [4, 11]: 39.50%; %Supercoiled [4, 11]: 3.90%; %Nicked [4, 12]: 10.40%; %Supercoiled [4, 12]: 21.60%; %Nicked [4, 13]: 63.30%; %Supercoiled [4, 13]: 1.60%
5 | Cc1n(CC(O)CCl)c([N+](=O)[O-])c[n+]1[Cu-2]([Br])([Br])[n+]1cc([N+](=O)[O-])n(CC(O)CCl)c1C (centres unmarked) [[Cu(onz)2Br2]] | 2.73 ± 0.34 | 2.73 | 43000 | 44.70 | 35.60 | 55.30 | 100.00 | – | – | 100.00 | – | – | 7.80 | 92.20 | 100.00 | 100.00 | 100.00 | 6.70 | 23.00 | 93.30 | IC50 [2]: 180 µM
6 | Cc1ncc([N+](=O)[O-])n1CCCl.Cc1ncc([N+](=O)[O-])n1CCCl.[Br][Cu][Br] [[Cu(cenz)2Br2]] | – | – | 35000 | 43.90 | – | 56.10 | 100.00 | – | – | 84.00 | 37.10 | 16.00 | 37.80 | 62.20 | 100.00 | 100.00 | 100.00 | 33.80 | 7.50 | 66.20 | %Nicked [4, 10]: 11.30%
